Data reported in US20260103468A1, “FUSED RING COMPOUND, PHARMACEUTICAL COMPOSITION, AND USE THEREOF” (Hainan Simcere Zaiming Pharmaceutical Co., Ltd., priority 2022, published 2026).

Columns and labels:
[1] = target: T1, GST-labeled human Cereblon WT (Homo sapiens, UniProt Q96SW2); test: Cereblon binding experiment (HTRF Human Cereblon Binding Kit); details: HTRF competition with XL665-labeled lenalidomide tracer; incubated at room temperature for 3 hours; read-out: IC50 (binding ability to Cereblon)
T1 construct: purchased
Description: The detection kit (HTRF Human Cereblon Binding Kits) used in the experiment was a detection method for quantitative measurement of Cereblon WT ligand using HTRF® technology. The detection principle was based on HTRF technology. The specifically labeled GST antibody (Eurum Cryptate, donor) bound to the GST-labeled human Cereblon WT ligand and the XL665-labeled lenalidomide tracer (acceptor) at the same time. The donor was excited with a light source to initiate fluorescence resonance energy transfer (FRET) to the acceptor. The acceptor emitted fluorescence at a specific wavelength of 665 nm. After adding the compound, the compound competed with XL665-labeled lenalidomide to prevent FRET. The FRET signal ratio was inversely proportional to the compound concentration.
Compounds of the present disclosure were dissolved in DMSO, with a mother liquor storage concentration of 10 mM. […] The HTRF signal in each well was measured using an Envision plate reader. […]
The ratio of acceptor and donor emission signals was calculated for each well: […]
Data analysis was performed by GraphPad Prism 9. The concentration-effect curves were obtained using a nonlinear four-parameter fitting, and IC50 of compounds was calculated: […]
The binding ability of the compounds of the present disclosure to Cereblon was determined by the above assay, and the measured IC50 values were shown in Table 1.

GSPT1 protein = target: T2, GSPT1 protein (Homo sapiens, UniProt P15170+Q96SW2); test: Degradation activity experiment on intracellular GSPT1 protein in CAL51 cells; type: cell-based; details: anti-GSPT1/anti-α-Tubulin antibody staining in 384-well plate; for DC50: 6 hours; for Dmax: CAL-51, 6 hours, read-out: Maximum degradation rate (%) (GSPT1 protein degradation activity)
T2 construct: endogenous in cells; host or cells: CAL51
Description: The medium of CAL51 (CBP60360, Kebai) was removed, and PBS was added for rinsing once, and then digested with trypsin (Trypsin-EDTA (0.25%)) for 5 minutes. After digestion, 10 mL of complete medium (DMEM containing 10% FBS[…]) was added to neutralize trypsin, and the cells were then pipetted, collected, centrifuged at 300 g for 5 min. The cell density was adjusted to 266,667 cells/mL. 30 μL of the cell suspension was added to a 384 well plate. The plate was centrifuged at 300 g for 1 min and then incubated in a cell incubator overnight.
Compounds of the present disclosure were dissolved in DMSO, with a mother liquor storage concentration of 10 mM. The gradient dilution of compound mother liquor was carried out through the dose-response program of the compound dilution and loading instrument. The total experimental volume of the dilution program was 30 μL, with the initial concentration of 100 μM for the tested compound. A4-fold dilution was performed, resulting in 10 concentration points. The positive control compound was CC-885 in Test Example 2, the negative control was DMSO, and the DMSO content of all wells was 0.3%. After the procedure, then the plate was centrifuged and incubated in a carbon dioxide incubator for 6 hours.
After 6 hours of administration, the supernatant was discarded, the cells were washed with 50 μL of cold PBS, and then the cells were fixed with 50 μL/well of 4% paraformaldehyde/universal tissue fixation solution, and incubated at room temperature for 1 hour. The paraformaldehyde was discarded and 50 μL/well PBS-0.1% Triton X-100 was added to permeate cells for 30 minutes. PBS-Triton was discarded, 50 μL/well of blocking buffer (927-70001, Li-COR) was added, and incubated at room temperature for 1 hour. The blocking buffer was removed, and 30 μL/well of rabbit anti-GSPT1 (1: 300) (HPA052488, Sigma), mouse anti-α-Tubulin (1: 2000) (T6074, Sigma) primary antibody mixed antibody was added, and incubated at 4° C. overnight. The well was washed with 50 μL/well PBST (PBS containing 0.1% Tween-20) and soaked for 10 minutes per round for 4 times. 30 μL/well of goat anti-mouse 680RD (P/N 925-68070, Li-COR) and goat anti-rabbit 800CW (P/N 925-32211, Li-COR) secondary antibody mixture (1: 5000) was added and incubated at room temperature away from light for 1-1.5 hours. The well was washed with 50 μL/well PBST and soaked for 10 min per round for 4 times. The centrifuge plate was turned upside down, covered with toilet paper, then centrifuged at 1000 rpm/min for 1 minute, and the bottom of the plate was dried. A 384-well plate was scanned with an Azure WB imaging system (Sapphire) and the data was read.
The GSPT1 protein degradation activity of the compounds of the present disclosure in CAL51 cells was measured by the above assay, and the protein degradation rate of each sample well was calculated based on the raw data.
[formula] • Sample reading: refers to the signal value of the experimental group; • DSMO reference mean reading; refers to the mean signal value of the DSMO control group. No test compound was added to the […], and other operations were consistent with those of the experimental group.
Data analysis was performed by GraphPad Prism 9. The concentration-effect curves were obtained using a nonlinear four-parameter fitting, and DC50 of compounds was calculated:
[formula] • Wherein: • X: Log of the compound concentration. • Y: degradation rate (%); • Bottom is the minimum percent degradation: • Top is the maximum percent degradation: • HillSlope is the slope coefficient of the curve.

CAL51 cells = test: Anti-proliferative activity experiment on CAL51 cells (CellTiter-Glo 3D); type: cell-based; details: Homo sapiens, CAL-51, 72 h, CAL51 cell spheroid, incubated 3 days
Description: The medium of target cells CAL51 (CBP60360, Kebai) was removed, and PBS was added for rinsing once, and then digested with trypsin (Trypsin-EDTA (0.25%)) for 5 minutes. After digestion, 10 mL of complete medium (DMEM containing 10% FBS) was added to neutralize trypsin, and the cells were pipetted and collected, then centrifuged at 300 g for 5 min, counted. The cell density was adjusted to 40,000 cells/mL. 90 μL cell suspension was added to a 96-well low adsorption plate. 200 μL of PBS was added to the edge wells. The plate was centrifuged at 300 g for 5 minutes to form cell spheroid, which were then incubated in a cell incubator overnights. […]
The cells were removed from the incubator and returned to room temperature for […]. 50 μL of CellTiter-Glo® 3D Cell Viability Assay reagent was added, and the plate was shaked and mixed well for 10 minutes, and then the plate was read with an Envision plate reader.
The anti-proliferative activity of the compound of the present disclosure on CAL51 cells was measured by the above assay, and the cell growth inhibition rate of each sample well was calculated based on the raw data.
[formula] • Sample reading: refers to the signal value of the experimental group; • DMSO reference mean reading: refers to the mean signal value of the DMSO control group. […]

T2 sequence (P15170 whole entry): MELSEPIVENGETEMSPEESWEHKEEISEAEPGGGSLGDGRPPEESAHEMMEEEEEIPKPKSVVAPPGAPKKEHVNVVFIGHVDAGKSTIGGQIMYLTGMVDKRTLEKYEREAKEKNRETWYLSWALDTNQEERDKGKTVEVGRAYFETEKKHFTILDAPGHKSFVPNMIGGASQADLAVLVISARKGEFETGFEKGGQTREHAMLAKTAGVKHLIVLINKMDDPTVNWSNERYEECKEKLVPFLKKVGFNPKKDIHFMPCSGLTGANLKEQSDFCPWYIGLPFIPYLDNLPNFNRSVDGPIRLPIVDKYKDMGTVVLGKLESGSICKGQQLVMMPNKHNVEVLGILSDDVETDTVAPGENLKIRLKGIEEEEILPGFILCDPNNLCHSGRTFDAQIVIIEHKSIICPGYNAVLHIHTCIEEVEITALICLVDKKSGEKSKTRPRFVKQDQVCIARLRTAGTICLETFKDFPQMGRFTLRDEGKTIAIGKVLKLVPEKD
T2 sequence (Q96SW2 whole entry): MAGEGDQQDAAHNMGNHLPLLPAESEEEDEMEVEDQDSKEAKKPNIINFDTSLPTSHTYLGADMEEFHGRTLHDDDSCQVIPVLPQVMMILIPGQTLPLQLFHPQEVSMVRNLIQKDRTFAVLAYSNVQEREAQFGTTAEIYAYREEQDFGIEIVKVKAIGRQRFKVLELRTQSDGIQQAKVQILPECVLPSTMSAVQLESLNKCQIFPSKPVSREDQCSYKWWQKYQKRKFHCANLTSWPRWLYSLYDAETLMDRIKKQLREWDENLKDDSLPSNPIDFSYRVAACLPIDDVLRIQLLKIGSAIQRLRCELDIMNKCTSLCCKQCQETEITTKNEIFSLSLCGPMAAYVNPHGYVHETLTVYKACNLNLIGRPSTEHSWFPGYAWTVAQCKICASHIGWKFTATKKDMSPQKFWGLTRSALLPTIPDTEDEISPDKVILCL
T2 sequence (Q16531 whole entry partner): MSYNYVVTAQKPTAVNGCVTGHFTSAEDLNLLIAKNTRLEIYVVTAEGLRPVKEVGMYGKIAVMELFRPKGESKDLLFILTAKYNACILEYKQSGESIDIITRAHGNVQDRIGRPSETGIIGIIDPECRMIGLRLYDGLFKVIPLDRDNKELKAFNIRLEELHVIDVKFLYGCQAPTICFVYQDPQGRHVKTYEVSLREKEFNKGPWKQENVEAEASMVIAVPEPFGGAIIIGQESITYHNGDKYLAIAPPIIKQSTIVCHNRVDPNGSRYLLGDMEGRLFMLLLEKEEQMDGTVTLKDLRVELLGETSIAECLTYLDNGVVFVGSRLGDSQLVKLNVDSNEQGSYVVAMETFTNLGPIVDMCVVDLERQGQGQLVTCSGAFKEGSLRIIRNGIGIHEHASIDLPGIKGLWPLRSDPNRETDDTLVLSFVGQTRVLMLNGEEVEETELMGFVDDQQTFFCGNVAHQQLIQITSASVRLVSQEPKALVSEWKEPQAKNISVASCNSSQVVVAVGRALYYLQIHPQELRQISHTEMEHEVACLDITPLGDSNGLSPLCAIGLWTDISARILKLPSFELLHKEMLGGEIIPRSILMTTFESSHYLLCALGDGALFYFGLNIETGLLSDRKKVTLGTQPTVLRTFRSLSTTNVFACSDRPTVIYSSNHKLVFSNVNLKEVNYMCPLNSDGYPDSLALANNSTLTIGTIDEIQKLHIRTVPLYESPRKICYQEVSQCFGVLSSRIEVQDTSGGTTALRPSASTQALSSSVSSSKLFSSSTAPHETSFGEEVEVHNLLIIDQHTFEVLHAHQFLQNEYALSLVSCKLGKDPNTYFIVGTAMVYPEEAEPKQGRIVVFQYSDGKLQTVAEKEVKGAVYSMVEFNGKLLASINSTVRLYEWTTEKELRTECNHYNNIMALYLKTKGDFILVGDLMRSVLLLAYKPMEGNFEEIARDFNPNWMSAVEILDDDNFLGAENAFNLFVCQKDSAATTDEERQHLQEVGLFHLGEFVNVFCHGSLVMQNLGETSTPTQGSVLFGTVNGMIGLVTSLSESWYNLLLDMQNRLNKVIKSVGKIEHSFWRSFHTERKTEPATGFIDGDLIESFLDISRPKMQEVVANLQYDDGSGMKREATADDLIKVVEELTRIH
T1 sequence (Q96SW2 whole entry): as the sequence (Q96SW2 whole entry) above

| SMILES | IC50 [1] | DC50 (GSPT1 protein) | Dmax (GSPT1 protein) | IC50 (CAL51 cells) |
| --- | --- | --- | --- | --- |
| O=C1CCC(N2Cc3cc4ccccc4n3C2=O)C(=O)N1 (centres unmarked) [Compound 1, 3-(3-oxo-1H-imidazo [1,5-a]indol-2 (3H)-yl) piperidine-2,6-dione] | 1000 to 10000 nM | – | – | – |
| CNc1cc(C#CC(=O)NCc2ccc3c(c2)cc2n3C(=O)N(C3CCC(=O)NC3=O)C2)ccc1C (centres unmarked) [Compound 4, N-((2-(2,6-dioxopiperidin-3-yl)-3-oxo-2,3-dihydro-1H-imidazo [1,5-a]indol-7-yl)methyl)-3-(4-methyl-3-(methylamino)phenyl) propinamide] | – | 144 nM | 85.3% | – |
| CNCCOCCc1cc(NC(=O)OCc2ccc3c(c2)cc2n3C(=O)N(C3CCC(=O)NC3=O)C2)ccc1Cl (centres unmarked) [Compound 9, (2-(2,6-dioxopiperidin-3-yl)-3-oxo-2,3-dihydro-1H-imidazo [1,5-a]indol-7-yl) methyl-(4-chloro-3-(2-(2-(methylamino)ethoxy)ethyl)phenyl) carbamate] | – | 1460 nM | 69.6% | – |
| O=C1CCC(N2Cc3nc4ccccc4n3C2=O)C(=O)N1 (centres unmarked) [Compound 14, 3-(1-oxo-1H-benzo [d]imidazo [1,5-a]imidazol-2 (3H)-yl) piperidine-2,6-dione] | 1000 to 10000 nM | – | – | – |

The next lines start with results.

| IC50 [1] | DC50 (GSPT1 protein) | Dmax (GSPT1 protein) | SMILES | IC50 (CAL51 cells) |
| --- | --- | --- | --- | --- |
| – | 86.3 nM | 95.4% | Cc1ccc(NC(=O)NCc2ccc3c(c2)cc2n3C(=O)N(C3CCC(=O)NC3=O)C2)cc1Cl (centres unmarked) [Compound 2, 1-(3-chloro-4-methylphenyl)-3-((2-(2,6-dioxopiperidin-3-yl)-3-oxo-2,3-dihydro-1H-imidazo [1,5-a]indol-7-yl)methyl) urea] | – |
| – | 25.4 nM | 98.3% | Cc1ccc(NC(=O)OCc2ccc3c(c2)cc2n3C(=O)N(C3CCC(=O)NC3=O)C2)cc1Cl (centres unmarked) [Compound 3, (2-(2,6-dioxopiperidin-3-yl)-3-oxo-2,3-dihydro-1H-imidazo [1,5-a]indol-7-yl) methyl-(3-chloro-4-methylphenyl) carbamate] | 39 nM |
| – | 20 nM | 96.7% | O=C1CCC(N2Cc3cc4cc(COC(=O)Nc5cc(OC(F)(F)F)ccc5F)ccc4n3C2=O)C(=O)N1 (centres unmarked) [Compound 5, 2-(2,6-dioxopiperidin-3-yl)-3-oxo-2,3-dihydro-1H-imidazo [1,5-a] indol-7-yl) methyl (2-fluoro-5-trifluoromethoxy) phenyl) carbamate] | – |
| – | 13 nM | 94.6% | CNc1ccc(NC(=O)OCc2ccc3c(c2)cc2n3C(=O)N(C3CCC(=O)NC3=O)C2)cc1Cl (centres unmarked) [Compound 8, (2-(2,6-dioxopiperidin-3-yl)-3-oxo-2,3-dihydro-1H-imidazo [1,5-a]indol-7-yl) methyl-(3-chloro-4-(methylamino)phenyl) carbamate] | – |
| – | 135 nM | 96.3% | Cc1ccc(NC(=O)OCc2cccc3c2cc2n3C(=O)N(C3CCC(=O)NC3=O)C2)cc1Cl (centres unmarked) [Compound 13, 2-(2,6-dioxopiperidin-3-yl)-3-oxo-2,3-dihydro-1H-imidazo [1,5-a] indol-8-yl) methyl (3-chloro-4-methylphenyl) carbamate] | – |
